Laboratory results as given in patent publication US4942163A, “1(2H)-isoquinolinones and 1-isoquinolineamines as cancer chemotherapeutic agents” (E. I. Du Pont de Nemours and Company, priority 1989, dated 1990).
Values after ≈ are worked out from the molar mass of the structure shown.

Assays:
P388 murine leukemia = P388 murine leukemia test (survival of tumor-bearing mice); format: in vivo, mouse; details: i.p. once daily for nine days from day 1
Experimental: The P388 tumor line originated in 1955 as a lymphocytic leukemia in a female DBA/2 mouse after the skin was painted with 3-methylcholanthrene. The tumor line is maintained by serial passage in female DBA/2 mice. On day 0, female CDF1 mice weighing 18-22 g are inoculated intraperitoneally with 1×10^6 P388 leukemia cells harvested from the ascites of DBA/2 mice. The mice are randomized into groups of six each and the test compounds and vehicle control are administered intraperitoneally once daily for nine consecutive days beginning day 1. A decrease in body weight on day 5 that is ≥20% is considered an indication of toxicity. The acceptable control mean survival time is 9-14 days. Results are expressed as a percentage of the mean survival time of the vehicle-treated control group according to the formula: [formula] Mice which survive for 30 days are considered cured and are not included in the calculation of the mean survival time. The NCI criteria for activity are used. A compound is considered to have moderate activity against P388 leukemia if it has a % T/C ≥125%, and it is considered to have good activity if it has a % T/C ≥150%.

[1] = system: LOX human amelanotic melanoma; assay: LOX human amelanotic melanoma xenograft test in athymic nude mice; format: in vivo; details: for % T/C (median survival time vs vehicle control): i.p. every fourth day, three injections
Description: The LOX human amelanotic melanoma tumor line was obtained from Dr. Oystein Fodstad, Department of Biochemistry, Norwegian Radium Hospital, Oslo, Norway. The line is maintained by serial passage in athymic NCR-NU mice. On day 0, athymic nude mice, all of one sex weighing a minimum of 18 g for males and 17 g for females, are inoculated intraperitoneally with 1×10^6 LOX melanoma cells harvested from the ascites of athymic mice. The mice are randomized into groups of six each and the test compounds and vehicle control are administered intraperitoneally every fourth day beginning day 1 for a total of three injections. Animals are evaluated for toxicity on day 10. A decrease in body weight ≥20% is considered an indication of toxicity. The acceptable control median survival time is 17-24 days. Results are expressed as a percentage of the median survival time of the vehicle-treated control group according to the formula: [formula]
The NCI criteria for activity are used. A compound is considered to have moderate activity against LOX melanoma if it has a % T/C ≥140%, and it is considered to have good activity if it has a % T/C ≥200%.

L1210 murine leukemia = L1210 murine leukemia test (survival of tumor-bearing mice); format: in vivo, mouse; details: i.p. once daily for nine days from day 1
Experimental: The L1210 tumor line originated in 1948 as a lymphocytic leukemia in a female DBA/2 mouse after the skin was treated with 0.2% 20-methylcholanthrene in ethyl ether. The tumor line is maintained by serial passage in female DBA/2 mice. On day 0, female CDF1 mice weighing 18-22 g are inoculated with 1×10^5 L1210 leukemia cells harvested from the ascites of DBA/2 mice. The mice are randomized into groups of six each and the test compounds and vehicle control are administered intraperitoneally once daily for nine consecutive days beginning on day 1. A ≥20% decrease in body weight on day 5 is considered an indication of toxicity. The acceptable control mean survival time is 8-11 days. Results are expressed as a percentage of the mean survival time of the vehicle-treated control group according to the formula: [formula] Mice which survive for 30 days are considered cured and are not included in the calculation of the mean survival time. The NCI criteria for activity are used. A compound is considered to have moderate activity against L1210 leukemia if it has a % T/C ≥125%, and it is considered to have good activity if it has a % T/C ≥150%.

[2] = system: RPMI-7272 human melanoma cells; assay: In vitro RPMI-7272 human melanoma cell growth inhibition; format: cell-based; details: RPMI-7272 melanoma, inhibition of cell doublings by 50%, 72 h, read-out: ID50 (the source's name)
Experimental: The compounds of this invention were also tested for their ability to inhibit the growth of human melanoma RPMI-7272 cells in vitro. Human melanoma RPMI-7272 cells (Quinn et al. [J. Natl. Cancer Inst. 59, 301-305 (1977)]) were propagated in RPMI-1640 medium supplemented with 10 mM Tricine (pH 7.8), 10 mM HEPES (pH 7.3), 0.075% sodium bicarbonate, and 10% (vol/vol) heat-inactivated (56° C., 30 minutes) fetal bovine serum in a 95% air:5% CO2 humidified atmosphere. Cells were seeded at 3×10^5 per 35 mm plate to initiate growth inhibition studies. Cultures to receive growth medium only (control cultures) were set up in quadruplicate; cultures to receive varying concentrations of compounds were set up at one dish per dose of compound. Twenty-four hours post-seeding, duplicate control cell cultures were trypsinized and cells were counted using a Coulter Counter (day 1 control counts). At this time, varying concentrations of test compounds, from 100 to 0.00001 μg/mL were added to cultures and growth medium only was added to control cultures. Seventy-two hours after the addition of compound, cells were trypsinized and counted. The numbers of cell population doublings (day 4) in the presence or absence of compound were calculated. The ID50 represents the dose of compound (in μg/mL) required to inhibit the number of cell doublings by 50%. A compound is considered to have in vitro activity against RPMI-7272 melanoma if it has an ID50 ≤1 μg/mL. The number of population doublings of control cultures during 72 hours was between 3 and 4. […] Dilutions to 1 mg/mL in complete growth medium were made, followed by stock preparations of 100 and 30 μg/mL in complete growth medium. Serial ten-fold dilutions in complete medium were formulated from the 100 and 30 μ g/mL stocks, respectively, and added to cultures.

B16 murine melanoma = B16 murine melanoma test (survival of tumor-bearing mice); format: in vivo, mouse; details: i.p. once daily for nine days from day 1
Experimental: The B16 tumor line arose spontaneously in 1954 on the skin at the base of the ear of a C57BL mouse. The tumor line is maintained by serial passage in female C57BL mice. On day 0, female B6C3F1 mice are inoculated intraperitoneally with 0.5 mL of a 10% tumor brei. This brei is prepared by homogenizing fresh B16 tumors, grown subcutaneously in C57BL mice, in cold physiological saline. Mice are randomized in groups of ten each, with 20 animals being in the control group. The test compounds and vehicle control are administered intraperitoneally once daily for nine consecutive days beginning on day 1. A ≥20% decrease in body weight on day 5 is considered an indication of toxicity. The acceptable mean control survival time is 14-22 days. Results are expressed as a percentage of the mean survival time of the vehicle-treated control group according to the formula: [formula] Mice which survive 90 days are considered cured and are not included in the calculation of the mean survival time. The NCI criteria for activity are used. A compound is considered to have moderate activity against B16 melanoma if it has a % T/C ≥125%, and it is considered to have good activity if it has a % T/C ≥150%.

Compound	IC50 [2]	also measured
O=c1[nH]c(-c2cccc3ccccc23)cc2ccccc12 [Example 1, 3-(1-Naphthalenyl)-1(2H)-isoquinolinone]	–	% T/C (mean survival time vs vehicle control) (P388 murine leukemia; dose 200 mg/kg): 161%; Cures (number of survivors/total at 60 days) ([1]; dose 400 mg/kg): 1/6; % T/C (median survival time vs vehicle control) ([1]; dose 400 mg/kg): 168%; % T/C (mean survival time vs vehicle control) (L1210 murine leukemia; dose 100 mg/kg): 148%
O=c1[nH]c(-c2cccc3ccccc23)cc2ccc(Cl)cc12 [Example 2, 7-chloro-3-(1-naphthalenyl)-1(2H)-isoquinolinone]	0.005 µg/mL (≈ 0.0164 µM)	% T/C (mean survival time vs vehicle control) (P388 murine leukemia; dose 100 mg/kg): 138%
Cc1ccc2cc(-c3cccc4ccccc34)[nH]c(=O)c2c1 [Example 3, 7-Methyl-3-(1-naphthalenyl)-1(2H)-isoquinolinone]	0.0072 µg/mL (≈ 0.0252 µM)	% T/C (mean survival time vs vehicle control) (P388 murine leukemia; dose 100 mg/kg): 152%; Cures (number of survivors/total at 60 days) ([1]; dose 240 mg/kg): 2/6; % T/C (median survival time vs vehicle control) ([1]; dose 240 mg/kg): 271%; % T/C (mean survival time vs vehicle control) (L1210 murine leukemia; dose 200 mg/kg): 133%; % T/C (mean survival time vs vehicle control) (B16 murine melanoma; dose 100 mg/kg): 149%
CN(C)c1ccc2cc(-c3cccc4ccccc34)[nH]c(=O)c2c1.Cl [Example 4, 7-(Dimethylamino)-3-(1-naphthalenyl)-1(2H)-isoquinolinone hydrochloride]	0.001 µg/mL	% T/C (mean survival time vs vehicle control) (L1210 murine leukemia; dose 6 mg/kg): 156%
C[N+](C)(C)c1ccc2cc(-c3cccc4ccccc34)[nH]c(=O)c2c1 [Example 5]	0.055 µg/mL	–
Cc1cccc2c(=O)[nH]c(-c3cccc4ccccc34)cc12 [Example 7]	0.29 µg/mL (≈ 1.02 µM)	–
Cc1ccc2c(=O)[nH]c(-c3cccc4ccccc34)cc2c1 [Example 9]	0.0016 µg/mL (≈ 0.00561 µM)	–
Cc1cccc2cc(-c3cccc4ccccc34)[nH]c(=O)c12 [Example 15]	0.53 µg/mL (≈ 1.86 µM)	–
Nc1nc(-c2cccc3ccccc23)cc2ccccc12 [Example 16]	0.22 µg/mL (≈ 0.814 µM)	–
Cc1cccc2c(N)nc(-c3cccc4ccccc34)cc12 [Example 18]	0.95 µg/mL (≈ 3.34 µM)	–
Nc1nc(-c2cccc3ccccc23)cc2cc(Cl)ccc12 [Example 19]	0.055 µg/mL (≈ 0.18 µM)	–
Cc1ccc2c(N)nc(-c3cccc4ccccc34)cc2c1 [Example 20, 6-Methyl-3-(1-naphthalenyl)-1-isoquinolineamine]	0.00077 µg/mL (≈ 0.00271 µM)	% T/C (mean survival time vs vehicle control) (B16 murine melanoma; dose 6 mg/kg): 130%
Nc1nc(-c2cccc3ccccc23)cc2ccc(Cl)cc12 [Example 21, 7-Chloro-3-(1-naphthalenyl)-1-isoquinolineamine]	0.0094 µg/mL (≈ 0.0308 µM)	% T/C (mean survival time vs vehicle control) (B16 murine melanoma; dose 100 mg/kg): 138%
Cc1ccc2cc(-c3cccc4ccccc34)nc(N)c2c1 [Example 22]	0.0016 µg/mL (≈ 0.00563 µM)	–
Nc1nc(-c2cccc3ccccc23)cc2cccc(Cl)c12 [Example 23]	0.07 µg/mL (≈ 0.23 µM)	–
Cc1cccc2cc(-c3cccc4ccccc34)nc(N)c12 [Example 24]	0.05 µg/mL (≈ 0.176 µM)	–
Cc1ccc2cc(-c3cccc4ccccc34)nc(N3CCN(C)CC3)c2c1 [Example 31, 7-Methyl-1-(4-methyl-1-piperazinyl)-3-(1-naphthalenyl)-isoquinoline]	–	% T/C (mean survival time vs vehicle control) (B16 murine melanoma; dose 6 mg/kg): 133%
Cc1ccc2cc(-c3cccc4ccccc34)nc(N(C)CCN(C)C)c2c1 [Example 40, N,N,N'-Trimethyl-N'-(7-methyl-3-(1-naphthalenyl)-1-isoquinolinyl)-1,2-ethanediamine]	–	% T/C (mean survival time vs vehicle control) (B16 murine melanoma; dose 0.75 mg/kg): 135%
